# In patent US8288375B2, “Fungicidal bicyclic pyrazoles” (E.I. du Pont de Nemours and Company, priority 2007, dated 2012):
# Tested on: Phytophthora infestans
# Test: whole plant or invertebrate
# Format: in vivo
# Settings: 200 ppm test suspension
row,SMILES,Test J disease control rating
1,CC(C)Nc1nccc(-c2c(-c3ccc(F)cc3)nn3c2CSCC3)n1 [compound 110],99%
2,CC(CO)Nc1nccc(-c2c(-c3ccc(F)cc3)nn3c2CSCC3)n1 (stereo not shown) [compound 111],80%
3,C[C@H](CO)Nc1nccc(-c2c(-c3ccc(F)cc3)nn3c2CCOC3)n1 [compound 113],96%
4,CC(C)Nc1nccc(-c2c(-c3ccsc3)nn3c2COCC3)n1 [compound 118],80%
5,Cc1cc(-c2nn3c(c2-c2ccnc(NC4CC4)n2)COCC3)ccc1F [compound 119],93%
6,Cc1cc(-c2nn3c(c2-c2ccnc(NC(C)C)n2)COCC3)ccc1F [compound 120],88%
7,CC(CO)Nc1nccc(-c2c(-c3ccccc3)nn3c2COCC3)n1 (stereo not shown) [compound 122],99%
8,Cc1cc(-c2nn3c(c2-c2ccnc(NC(C)CO)n2)COCC3)ccc1F (stereo not shown) [compound 123],91%
9,CC(CO)Nc1nccc(-c2c(-c3ccsc3)nn3c2COCC3)n1 (stereo not shown) [compound 124],66%
10,CC(C)Nc1nccc(-c2c(-c3ccc(F)cc3F)nn3c2COCC3)n1 [compound 125],100%
11,Fc1ccc(-c2nn3c(c2-c2ccnc(NC4CC4)n2)COCC3)c(F)c1 [compound 126],87%
12,CC(CO)Nc1nccc(-c2c(-c3ccc(F)cc3F)nn3c2COCC3)n1 (stereo not shown) [compound 127],100%
13,CC(CO)Nc1nccc(-c2c(-c3ccc(F)cc3)nn3c2Cc2ccccc2C3)n1 (stereo not shown) [compound 140],26%

# Tested on: Erysiphe graminis f. sp. tritici
# Test: Test A: wheat powdery mildew, test suspension sprayed on wheat seedlings, disease rating
# Format: in vivo
# Settings: 200 ppm test suspension; 100 = 100% disease control, 0 = no control
row,SMILES,Test A disease control rating
1,CC(C)Nc1nccc(-c2c(-c3ccc(F)cc3)nn3c2CSCC3)n1 [compound 110],0%
2,CC(CO)Nc1nccc(-c2c(-c3ccc(F)cc3)nn3c2CSCC3)n1 (stereo not shown) [compound 111],21%
3,C[C@H](CO)Nc1nccc(-c2c(-c3ccc(F)cc3)nn3c2CCOC3)n1 [compound 113],0%
4,CC(C)Nc1nccc(-c2c(-c3ccsc3)nn3c2COCC3)n1 [compound 118],0%
5,Cc1cc(-c2nn3c(c2-c2ccnc(NC4CC4)n2)COCC3)ccc1F [compound 119],61%
6,Cc1cc(-c2nn3c(c2-c2ccnc(NC(C)C)n2)COCC3)ccc1F [compound 120],86%
7,CC(CO)Nc1nccc(-c2c(-c3ccccc3)nn3c2COCC3)n1 (stereo not shown) [compound 122],0%
8,Cc1cc(-c2nn3c(c2-c2ccnc(NC(C)CO)n2)COCC3)ccc1F (stereo not shown) [compound 123],0%
9,CC(CO)Nc1nccc(-c2c(-c3ccsc3)nn3c2COCC3)n1 (stereo not shown) [compound 124],0%
10,CC(C)Nc1nccc(-c2c(-c3ccc(F)cc3F)nn3c2COCC3)n1 [compound 125],20%
11,Fc1ccc(-c2nn3c(c2-c2ccnc(NC4CC4)n2)COCC3)c(F)c1 [compound 126],0%
12,CC(CO)Nc1nccc(-c2c(-c3ccc(F)cc3F)nn3c2COCC3)n1 (stereo not shown) [compound 127],0%
13,CC(CO)Nc1nccc(-c2c(-c3ccc(F)cc3)nn3c2Cc2ccccc2C3)n1 (stereo not shown) [compound 140],0%
14,CCNc1nccc(-c2c(-c3ccccc3)nn3c2CCCC3)n1 [compound 143],96%

# Tested on: Rhizoctonia oryzae
# Test: Test I: turf brown patch, test suspension sprayed on creeping bent grass seedlings, disease rating
# Format: in vivo
# Settings: 200 ppm test suspension
row,SMILES,Test I disease control rating
1,CCNc1nccc(-c2c(-c3ccccc3)nn3c2CCCC3)n1 [compound 143],86%

# Tested on: Pythium aphanidermatum
# Test: Test L: bluegrass pythium blight, test suspension sprayed on bluegrass seedlings, disease rating;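 note: 200 ppm unless marked * meaning 40 ppm or ** meaning 10 ppm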
# Format: in vivo
# Settings: 200 ppm test suspension
row,SMILES,Test L disease control rating
1,CC(C)Nc1nccc(-c2c(-c3ccc(F)cc3)nn3c2CSCC3)n1 [compound 110],100%
2,CC(CO)Nc1nccc(-c2c(-c3ccc(F)cc3)nn3c2CSCC3)n1 (stereo not shown) [compound 111],100%
3,C[C@H](CO)Nc1nccc(-c2c(-c3ccc(F)cc3)nn3c2CCOC3)n1 [compound 113],100%
4,CC(C)Nc1nccc(-c2c(-c3ccsc3)nn3c2COCC3)n1 [compound 118],99%
5,Cc1cc(-c2nn3c(c2-c2ccnc(NC4CC4)n2)COCC3)ccc1F [compound 119],92%
6,Cc1cc(-c2nn3c(c2-c2ccnc(NC(C)C)n2)COCC3)ccc1F [compound 120],98%
7,CC(CO)Nc1nccc(-c2c(-c3ccccc3)nn3c2COCC3)n1 (stereo not shown) [compound 122],100%
8,Cc1cc(-c2nn3c(c2-c2ccnc(NC(C)CO)n2)COCC3)ccc1F (stereo not shown) [compound 123],100%
9,CC(CO)Nc1nccc(-c2c(-c3ccsc3)nn3c2COCC3)n1 (stereo not shown) [compound 124],99%
10,CC(C)Nc1nccc(-c2c(-c3ccc(F)cc3F)nn3c2COCC3)n1 [compound 125],100%
11,Fc1ccc(-c2nn3c(c2-c2ccnc(NC4CC4)n2)COCC3)c(F)c1 [compound 126],99%
12,CC(CO)Nc1nccc(-c2c(-c3ccc(F)cc3F)nn3c2COCC3)n1 (stereo not shown) [compound 127],99%
13,CC(CO)Nc1nccc(-c2c(-c3ccc(F)cc3)nn3c2Cc2ccccc2C3)n1 (stereo not shown) [compound 140],99%

# Tested on: Puccinia recondite f sp. tritici
# Test: Test B: wheat leaf rust, test suspension sprayed on wheat seedlings, disease rating;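 note: 200 ppm unless marked * meaning 40 ppm or ** meaning 10 ppm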
# Format: in vivo
# Settings: 200 ppm test suspension
row,SMILES,Test B disease control rating
1,CC(C)Nc1nccc(-c2c(-c3ccc(F)cc3)nn3c2CSCC3)n1 [compound 110],95%
2,CC(CO)Nc1nccc(-c2c(-c3ccc(F)cc3)nn3c2CSCC3)n1 (stereo not shown) [compound 111],95%
3,C[C@H](CO)Nc1nccc(-c2c(-c3ccc(F)cc3)nn3c2CCOC3)n1 [compound 113],97%
4,CC(C)Nc1nccc(-c2c(-c3ccsc3)nn3c2COCC3)n1 [compound 118],86%
5,Cc1cc(-c2nn3c(c2-c2ccnc(NC4CC4)n2)COCC3)ccc1F [compound 119],76%
6,Cc1cc(-c2nn3c(c2-c2ccnc(NC(C)C)n2)COCC3)ccc1F [compound 120],90%
7,CC(CO)Nc1nccc(-c2c(-c3ccccc3)nn3c2COCC3)n1 (stereo not shown) [compound 122],96%
8,Cc1cc(-c2nn3c(c2-c2ccnc(NC(C)CO)n2)COCC3)ccc1F (stereo not shown) [compound 123],90%
9,CC(CO)Nc1nccc(-c2c(-c3ccsc3)nn3c2COCC3)n1 (stereo not shown) [compound 124],86%
10,CC(C)Nc1nccc(-c2c(-c3ccc(F)cc3F)nn3c2COCC3)n1 [compound 125],86%
11,Fc1ccc(-c2nn3c(c2-c2ccnc(NC4CC4)n2)COCC3)c(F)c1 [compound 126],86%
12,CC(CO)Nc1nccc(-c2c(-c3ccc(F)cc3F)nn3c2COCC3)n1 (stereo not shown) [compound 127],97%
13,CC(CO)Nc1nccc(-c2c(-c3ccc(F)cc3)nn3c2Cc2ccccc2C3)n1 (stereo not shown) [compound 140],90%
14,CCNc1nccc(-c2c(-c3ccccc3)nn3c2CCCC3)n1 [compound 143],100%

# Tested on: Fusarium graminearum
# Test: whole plant or invertebrate
# Format: in vivo
# Settings: 200 ppm test suspension
row,SMILES,Test C disease control rating
1,CC(C)Nc1nccc(-c2c(-c3ccc(F)cc3)nn3c2CSCC3)n1 [compound 110],92%
2,CC(CO)Nc1nccc(-c2c(-c3ccc(F)cc3)nn3c2CSCC3)n1 (stereo not shown) [compound 111],95%
3,C[C@H](CO)Nc1nccc(-c2c(-c3ccc(F)cc3)nn3c2CCOC3)n1 [compound 113],99%
4,CC(C)Nc1nccc(-c2c(-c3ccsc3)nn3c2COCC3)n1 [compound 118],98%
5,Cc1cc(-c2nn3c(c2-c2ccnc(NC4CC4)n2)COCC3)ccc1F [compound 119],100%
6,Cc1cc(-c2nn3c(c2-c2ccnc(NC(C)C)n2)COCC3)ccc1F [compound 120],100%
7,CC(CO)Nc1nccc(-c2c(-c3ccccc3)nn3c2COCC3)n1 (stereo not shown) [compound 122],99%
8,Cc1cc(-c2nn3c(c2-c2ccnc(NC(C)CO)n2)COCC3)ccc1F (stereo not shown) [compound 123],99%
9,CC(CO)Nc1nccc(-c2c(-c3ccsc3)nn3c2COCC3)n1 (stereo not shown) [compound 124],98%
10,CC(C)Nc1nccc(-c2c(-c3ccc(F)cc3F)nn3c2COCC3)n1 [compound 125],100%
11,Fc1ccc(-c2nn3c(c2-c2ccnc(NC4CC4)n2)COCC3)c(F)c1 [compound 126],99%
12,CC(CO)Nc1nccc(-c2c(-c3ccc(F)cc3F)nn3c2COCC3)n1 (stereo not shown) [compound 127],96%
13,CC(CO)Nc1nccc(-c2c(-c3ccc(F)cc3)nn3c2Cc2ccccc2C3)n1 (stereo not shown) [compound 140],98%
14,CCNc1nccc(-c2c(-c3ccccc3)nn3c2CCCC3)n1 [compound 143],99%

# Tested on: Septoria nodorum
# Test: Test D: wheat glume blotch, test suspension sprayed on wheat seedlings, disease rating
# Format: in vivo
# Settings: 200 ppm test suspension
row,SMILES,Test D disease control rating
1,CC(C)Nc1nccc(-c2c(-c3ccc(F)cc3)nn3c2CSCC3)n1 [compound 110],60%
2,CC(CO)Nc1nccc(-c2c(-c3ccc(F)cc3)nn3c2CSCC3)n1 (stereo not shown) [compound 111],64%
3,C[C@H](CO)Nc1nccc(-c2c(-c3ccc(F)cc3)nn3c2CCOC3)n1 [compound 113],78%
4,CC(C)Nc1nccc(-c2c(-c3ccsc3)nn3c2COCC3)n1 [compound 118],78%
5,Cc1cc(-c2nn3c(c2-c2ccnc(NC4CC4)n2)COCC3)ccc1F [compound 119],99%
6,Cc1cc(-c2nn3c(c2-c2ccnc(NC(C)C)n2)COCC3)ccc1F [compound 120],100%
7,CC(CO)Nc1nccc(-c2c(-c3ccccc3)nn3c2COCC3)n1 (stereo not shown) [compound 122],73%
8,Cc1cc(-c2nn3c(c2-c2ccnc(NC(C)CO)n2)COCC3)ccc1F (stereo not shown) [compound 123],0%
9,CC(CO)Nc1nccc(-c2c(-c3ccsc3)nn3c2COCC3)n1 (stereo not shown) [compound 124],60%
10,CC(C)Nc1nccc(-c2c(-c3ccc(F)cc3F)nn3c2COCC3)n1 [compound 125],89%
11,Fc1ccc(-c2nn3c(c2-c2ccnc(NC4CC4)n2)COCC3)c(F)c1 [compound 126],82%
12,CC(CO)Nc1nccc(-c2c(-c3ccc(F)cc3F)nn3c2COCC3)n1 (stereo not shown) [compound 127],60%
13,CC(CO)Nc1nccc(-c2c(-c3ccc(F)cc3)nn3c2Cc2ccccc2C3)n1 (stereo not shown) [compound 140],0%
14,CCNc1nccc(-c2c(-c3ccccc3)nn3c2CCCC3)n1 [compound 143],100%

# Tested on: Septoria tritici
# Test: Test E: wheat leaf blotch, test suspension sprayed on wheat seedlings, disease rating;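 note: 200 ppm unless marked * meaning 40 ppm or ** meaning 10 ppm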
# Format: in vivo
# Settings: 200 ppm test suspension
row,SMILES,Test E disease control rating
1,CC(C)Nc1nccc(-c2c(-c3ccc(F)cc3)nn3c2CSCC3)n1 [compound 110],17%
2,CC(CO)Nc1nccc(-c2c(-c3ccc(F)cc3)nn3c2CSCC3)n1 (stereo not shown) [compound 111],31%
3,C[C@H](CO)Nc1nccc(-c2c(-c3ccc(F)cc3)nn3c2CCOC3)n1 [compound 113],91%
4,CC(C)Nc1nccc(-c2c(-c3ccsc3)nn3c2COCC3)n1 [compound 118],82%
5,Cc1cc(-c2nn3c(c2-c2ccnc(NC4CC4)n2)COCC3)ccc1F [compound 119],87%
6,Cc1cc(-c2nn3c(c2-c2ccnc(NC(C)C)n2)COCC3)ccc1F [compound 120],95%
7,CC(CO)Nc1nccc(-c2c(-c3ccccc3)nn3c2COCC3)n1 (stereo not shown) [compound 122],80%
8,Cc1cc(-c2nn3c(c2-c2ccnc(NC(C)CO)n2)COCC3)ccc1F (stereo not shown) [compound 123],31%
9,CC(CO)Nc1nccc(-c2c(-c3ccsc3)nn3c2COCC3)n1 (stereo not shown) [compound 124],54%
10,CC(C)Nc1nccc(-c2c(-c3ccc(F)cc3F)nn3c2COCC3)n1 [compound 125],88%
11,Fc1ccc(-c2nn3c(c2-c2ccnc(NC4CC4)n2)COCC3)c(F)c1 [compound 126],70%
12,CC(CO)Nc1nccc(-c2c(-c3ccc(F)cc3F)nn3c2COCC3)n1 (stereo not shown) [compound 127],86%
13,CC(CO)Nc1nccc(-c2c(-c3ccc(F)cc3)nn3c2Cc2ccccc2C3)n1 (stereo not shown) [compound 140],49%
14,CCNc1nccc(-c2c(-c3ccccc3)nn3c2CCCC3)n1 [compound 143],100%
